In patent US7405063B2, “Biooxidation capabilities of Candida sp” (Cognis Corporation, priority 2000, dated 2008):
Marks after values point to notes of the source that are not given here.

How the values were obtained:
C. tropicalis = assay: Toxicity tests of additional substrates (absorbance at 600 nm); format: cell-based; details: 24 hours, added without solvent
Protocol: Additional substrates were to be tested for bioconversion following a slightly different protocol than the one noted above in Example 3. Those substrates also had to be tested for toxicity similar to the test described in Example 2, to determine the highest concentration at which a substrate could be added to a culture broth without being toxic, inhibiting growth, or interfering with the bioconversion process. C. tropicalis was grown in the presence of the substrate at three different concentrations and growth was monitored spectrophotometrically. In contrast to Example 2, all test substrates were added directly to the culture medium without dissolving in solvent. The tests were completed as follows:
On the first day, H5343 was grown in YPD medium (25.0 ml seed culture) overnight on a rotary shaker at 30° C. and 250 rpm. The next day 1.0 ml of the seed culture was used to inoculate a new flask of 50 ml YPD. This culture was grown overnight on a rotary shaker at 30° C. and 250 rpm. […]
Two control flasks were each inoculated with H5343 in 25 ml YPD. All flasks were incubated on a rotary shaker at 30° C. and 250 rpm.
After 24 hours incubation, the absorbance at 600 nm of the test and control flask cultures was determined, using uninoculated YPD broth as blank. Cultures were diluted so that the OD^600 nm measured between 0.15 and 0.3.
For strongly inhibitory substrates, a concentration of 0.1-0.2% was chosen for the bioconversion tests.

[1] = system: C. tropicalis strain H5343; assay: Toxicity tests of substrates (growth by absorbance at 600 nm, streak plates); format: cell-based; details: for ABS 600.0 nm: 48 h, 30° C., dilution in YPD 1:100
Protocol: The toxicity test used here was similar to that used for the solvents described in Example 1. The goal was to determine the highest concentration at which a substrate could be added to a culture broth without being toxic, inhibiting growth, or interfering with the bioconversion process. C. tropicalis strain H5343 was grown in the presence of the substrate at different concentrations and growth was monitored spectrophotometrically. In order to determine if the substrate was lethal or was simply inhibiting growth, the cultures were examined under the microscope and streak plates of YPD and LB agar were prepared. Contamination of the culture with an unwanted organism could also be detected using this approach.
6 ml was transferred to the first tube and 3 ml to the rest. 1% substrate was added to the first tube and then serially diluted to give concentrations from 1% to 0.015%. Since the last tube was initially empty, the concentration in the last two tubes was the same. […] As a growth-control one culture without substrate was inoculated.
To determine if contamination had occurred, each culture was examined under the microscope and streak plates of both YPD and LB were made from the 1% and the inoculated 0.015% tube.

[2] = substrate concentration 0.01563%
[3] = substrate concentration 0.0313%

Row | SMILES | Absorbance at 600 nm (C. tropicalis; substrate concentration 0.1%) | Absorbance at 600 nm (C. tropicalis; substrate concentration 0.5%) | Absorbance at 600 nm (C. tropicalis; substrate concentration 1.0%) | ABS 600.0 nm [1, 2] | ABS 600.0 nm [1, 3] | ABS 600.0 nm ([1]; substrate concentration 0.063%) | ABS 600.0 nm ([1]; substrate concentration 0.13%) | ABS 600.0 nm ([1]; substrate concentration 0.25%) | ABS 600.0 nm ([1]; substrate concentration 0.5%) | ABS 600.0 nm ([1]; substrate concentration 1%) | Toxic at (concentration) ([1]; Phase I screening summary)
1 | CCCCCCCCCCCCCCC(O)CO (stereo not shown) [1,2-Hexadecanediol] | 3.103 | 3.033 | 2.013 |  |  |  |  |  |  |  | 
2 | CCCCCCCCCCCCO [1-Dodecanol] |  |  |  | 0.000 | 0.000 | 0.000 | 0.004 | 0.032** | 0.013** | 0.267** | 
3 | C=CCCCCCCCCCCCCCC [1-Hexadecene] | 38.99 | 35.33 | 37.93 |  |  |  |  |  |  |  | 
4 | C=CCCCCCCCCCCCCCCCC [1-Octadecene] | 34.93 | 36.33 | 34.7 |  |  |  |  |  |  |  | 
5 | CCCCCCC(CO)CCCC (stereo not shown) [2-Butyl-1-octanol] | 10.53 | 8.973 | 6.213 |  |  |  |  |  |  |  | 
6 | CCCCC(CC)C(=O)O (stereo not shown) [2-Ethylhexanoic acid] |  |  |  | 0.099 | 0.051 | 0.000 | 0.000 | 0.000 | 0.000 | 0.000 | 
7 | CCCCCCCCCC(CCCCCCC)C(=O)O (stereo not shown) [2-Heptylundecanoic acid] |  |  |  | 0.082 | 0.077 | 0.077 | 0.043 |  | 0.048 | 0.268 | 
8 | CCCCCCCCC(CCCCCC)C(=O)O (stereo not shown) [2-Hexydecanoic acid, 2-hexyldecanoic acid] | 27.73 | 35.33 | 41.53 |  |  |  |  |  |  |  | 
9 | CCCCCC#CCCCCC [6-Dodecyne] |  |  |  | 0.125 | 0.083 | 0.074 | 0.071 | 0.073 | 0.071 | 0.066 | 
10 | CCCCCC(O)CCCCC [6-Undecanol] |  |  |  | 0.000** | 0.000** | 0.000** | 0.000** | 0.000** | 0.000** | 0.000** | 
11 | CCCCCCCCC(=O)CCCCCCCC [9-Heptadecanone] |  |  |  | 0.100 | 0.120 | 0.064 | 0.103 | 0.120 | 0.073 | 0.004** | 
12 | CCCCCCC(O)CCCCCCCCCCC(=O)O (stereo not shown) [12-Hydroxystearic acid] |  |  |  |  |  |  |  |  |  | 0.120 | 
13 | C=CCCCCCCCCCC [C12 a-Olefin] |  |  |  | 0.077 | 0.119 | 0.119 | 0.082 | 0.080 | 0.080 | 0.082 | 
14 | C=CCCCCCCCCCCCC [C14 a-Olefin, 1-tetradecene] |  |  |  | 0.061 | 0.084 | 0.085 | 0.097 | 0.115 | 0.084 | 0.087 | 
15 | C=CCCCCCCCCCC [Dodecene] |  |  |  | 0.088 | 0.055 | 0.079 | 0.050 | 0.053 | 0.032 | 0.026 | 
16 | CCCCCCCCCCCCN [Dodecyclamine, Dodecylamine] |  |  |  | 0.000 | 0.000 | 0.000 | 0.000 | 0.000 | 0.000 | 0.000 | Toxic at 0.01%
17 | CCCCCCCC/C=C\CCCCCCCCO [HD-Ocenol, oleyl alcohol] |  |  |  | 0.093 | 0.087 | 0.076 | 0.115 | 0.097 | 0.085 | 0.087 | 
18 | CCCCCCCCCCCCCCCCOC(C)=O [Hexadecyl acetate] |  |  |  | 0.110 | 0.104 | 0.089 | 0.083 | 0.110 | 0.103 | 0.155 | 
19 | CCCCCCCCCCCCCCCCOC(=O)CCCCCCCC [Hexadecyl pelargonate] |  |  |  | 0.112 | 0.095 | 0.075 | 0.083 | 0.103 | 0.102 | 0.080 | 
20 | C=C[C@](C)(O)CC[C@@H]1[C@@]2(C)CCCC(C)(C)[C@@H]2CC[C@@]1(C)O [Indu-Extrakt-sclareol, sclareol] |  |  |  | 0.083 | 0.100 | 0.157 | 0.106 | 0.110 | 0.092 | 0.083 | 
21 | C=C(C)[C@H]1CC=C(C)CC1 [R(+) limonene] |  |  |  | 0.123 | 0.117 | 0.106 | 0.007 | 0.000 | 0.000 | 0.000 | 
22 | C=C(C)[C@@H]1CC=C(C)CC1 [S(−) limonene] |  |  |  | 0.104 | 0.094 | 0.011 | 0.002 | 0.000 | 0.002 | 0.002 | 
23 | C/C=C/CCCCCC [trans-2-nonene] |  |  |  | 0.112 | 0.100 | 0.105 | 0.066 | 0.000 | 0.000 | 0.000 | 
24 | CCCCCC/C=C/CCCCCC [trans-7-tetradecene] |  |  |  | 0.117 | 0.106 | 0.112 | 0.104 | 0.103 | 0.107 | 0.095 | 
